Laboratory results from article PMC8958505, “Discovery of Potential Neuroprotective Agents against Paclitaxel-Induced Peripheral Neuropathy” (Journal of Medicinal Chemistry, 2022).
Counter-ions that a name gives are not always drawn. Like-named read-outs stand apart in the source and are kept apart here.

Assays:
[1] = tested on: mouse primary DRG neurons; assay: Neurite outgrowth assay of DRG neurons (image-based HCS) against paclitaxel-induced neurotoxicity; assay type: cell-based; details: for activation at 1 µM: Mus musculus, DRG neuron; for protective efficacy against paclitaxel-induced neurotoxicity (in words): pretreated, + 50 nM paclitaxel
Description: All these 19 compounds were then subjected to the neurite outgrowth assay of dorsal root ganglion (DRG) neurons paired with an image-based HCS to analyze whether they had neuroprotective potential. Quantification of neurite outgrowth under different regimens is shown in Figure 3, wherein DRG neurons incubated in 50 nM paclitaxel could cause 60% reduction in neurite outgrowth compared to the control (no drug treatment). […] Taken together, CN016 is selected as a promising lead for further development.
Primary cortical or DRG cells were fixed with 4% paraformaldehyde for 15 min following compound and paclitaxel treatment. After washing with PBS, the fixed cells were permeabilized with PBS containing 0.05% Triton X-100 for 20 min and then blocked with commercial blocking buffer (#GTX30963; GeneTex, USA) at room temperature for 1 h. Subsequently, the cortical cells were stained for the extending processes and synaptic puncta by using anti-MAP2 (#MBS502140, 1:500; Mybiosource, USA) and anti-synaptophysin (#ab32127, 1:500; Abcam, UK) overnight. DRG cells were stained for the neurite and neuron nucleus by using anti-β III tubulin (#D71G9, 1:600; Cell Signaling, USA) and anti-NeuN monoclonal antibody (#MAB377, 1:400; Millipore, USA) overnight. On the second day, the samples were washed for 30 min with wash buffer and incubated with secondary antibodies (Alexa-488, 647 1:600; Thermo Fisher, USA) and 4 μg/mL Hoechst 33258 (#94403-1ML, 1:100; Merck, USA) at room temperature for 1 h. In the initial experiments of screening the potential neuroprotective compound for CIPN, ImageXpress^Micro (IXM) high-content imaging system (Molecular Devices, USA) driven by MetaXpress software was used. Images of treated cells were automatically acquired by using a 10× objective. Twenty-one images per well were taken in each of three channels (DAPI, FITC, and Cy5) to create a whole view of the entire neural network. The integrity of the neural network was evaluated using TIF images by importing them into MetaXpress software for analysis using the module for multiparameter, such as Neurite Outgrowth, Cell Scoring, and Transfluor. Furthermore, the score of synaptogenesis was analyzed in AcuityXpress software (Molecular Devices, USA).

sciatic nerve fibers = assay: Ultrastructure evaluation of the sciatic nerve (TEM); assay type: in vivo, mouse; details: paclitaxel 4.5 mg/kg x 4
Source text: Sciatic nerves were isolated from mice after drug treatment and behavioral tests to examine the ultrastructure of nerve fibers. […] To evaluate the integrity of myelin, we calculated the G-ratio (axon perimeter/myelin perimeter) in different treatment groups. Because the symptoms of PIPN mostly manifest with sensory impairment,[28] we roughly classified nerve fibers into larger fibers (diameter > 5 μm) and small fibers (diameter < 5 μm) depending on the type of sensory information conveyed.[29] Large fibers with greater than 5 μm diameter carry information related to proprioception, touch, and pressure. In contrast, small fibers with less than 5 μm diameter carry information related to temperature and pain.
Sciatic nerve samples from mice from each treatment group were isolated after the last time point of mouse behavioral tests. Fixation of sciatic nerves with 4% glutaraldehyde and post fixation with 1% osmium tetroxide solution at 4 °C were performed. […] Transmission electron microscopy (H7650, Hitachi) was used to observe the ultrastructure in the cross section of the sciatic nerves.

[2] = tested on: paclitaxel-induced neuropathy in mice; parameters: method as in PMID 28349969; details: up to 25 mg/kg; cited from earlier work
primary cortical neurons [3] = assay: Neurite outgrowth assay of primary cortical neurons (image-based HCS) against paclitaxel-induced neurotoxicity; assay type: cell-based, mouse; details: Mus musculus, Primary cortical neuron; test compound 1000 nM + paclitaxel 1 μM; mean ± SE; read-out: D: Neurite outgrowth (% of control) of test compound (1000 nM) + paclitaxel (1 μM)
Method in brief: (§1)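 Cortical neurons from P0 C57BL/6J mouse pups pretreated with compound at 10 and 1000 nM before 1 μM paclitaxel. Cells fixed and immunostained for MAP2 (processes), synaptophysin (synaptic puncta) and Hoechst, then imaged by automated high-content microscopy at 10×. Neurite outgrowth and synaptogenesis scored from multiparameter image analysis.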

mice = tested on: mice; parameters: method as in PMID 28349969; details: cited from earlier work
primary cortical neurons [4] = assay: Synaptogenesis assay of primary cortical neurons (image-based HCS) against paclitaxel-induced neurotoxicity; assay type: cell-based, mouse; details: Mus musculus, Primary cortical neuron; test compound 1000 nM + paclitaxel 1 μM; mean ± SE; read-out: B: Synaptogenesis (% of control) of test compound (1000 nM) + paclitaxel (1 μM)
Method in brief: as §1

[5] = Table 1, A: neurite outgrowth (% of control) of test compound 1000 nM + paclitaxel 50 nM, B: paclitaxel 50 nM alone, DRG neurons, read-out: Neuroprotection rate = (A-B)±S.E.M [%]
[6] = supplementary CSV, test compound 1000 nM, read-out: A-B (A: neurite outgrowth (% of control) of test compound (1000 nM) + paclitaxel (50 nM), B: of paclitaxel (50 nM))
[7] = Table S2, test compound 1000 nM + paclitaxel 50 nM minus paclitaxel 50 nM, read-out: Neuroprotection rate = (A-B) ± S.E.M [%]

SMILES | activation at 1 µM [1, 6] | activation at 1 µM [1, 7] | other results
O=P(O)(O)CCN1CCC(Nc2cc(N3CCCCC3)nc(NCc3cn(CCCO)nn3)n2)CC1 [CN022, {2-[4-(2-{[1-(3-Hydroxy-propyl)-1H-[1,2,3]triazol-4-ylmethyl]-amino}-6-piperidin-1-yl-pyrimidin-4-ylamino)-piperidin-1-yl]-ethyl}-phosphonic Acid Hydrobromide Salt] | 6% |  | activation at 1 µM [1, 5]: 6 ± 0.78%
COC(=O)CCOCCCn1cc(CNc2nc(NC3CCN(Cc4ccccc4)CC3)cc(N3CCOCC3)n2)nn1 [CN002, 3-[3-(4-{[4-(1-Benzyl-piperidin-4-ylamino)-6-morpholin-4-yl-pyrimidin-2-ylamino]-methyl}-[1,2,3]triazol-1-yl)-propoxy]-propionic Acid Methyl Ester] | -4% | -4 ± 0.81% | 
CC(O)CCn1cc(CNc2nc(NC3CCN(CCP(=O)(O)O)CC3)cc(N3CCOCC3)n2)nn1 (stereo not drawn) [CN026, {2-[4-(2-{[1-(3-Hydroxy-butyl)-1H-[1,2,3]triazol-4-ylmethyl]-amino}-6-morpholin-4-yl-pyrimidin-4-ylamino)-piperidin-1-yl]-ethyl}-phosphonic Acid Hydrobromide Salt] | 11% |  | activation at 1 µM [1, 5]: 11 ± 1.48%
CC(=O)O[C@H]1C(=O)[C@@]2(C)[C@H]([C@H](OC(=O)c3ccccc3)[C@]3(O)C[C@H](OC(=O)[C@H](O)[C@@H](NC(=O)c4ccccc4)c4ccccc4)C(C)=C1C3(C)C)[C@]1(OC(C)=O)CO[C@@H]1C[C@@H]2O [paclitaxel, Paclitaxel] |  |  | fiber loss (myelinated fiber density) (sciatic nerve fibers): 25%; reduction in neurite outgrowth compared to the control ([1]; 50 nM paclitaxel, DRG neurons): 60%
CCOP(=O)(CCN1CCC(Nc2cc(N3CCOCC3)nc(NCc3cn(CCC(C)O)nn3)n2)CC1)OCC (stereo not drawn) [CN014, {2-[4-(2-{[1-(3-Hydroxy-butyl)-1H-[1,2,3]triazol-4-ylmethyl]-amino}-6-morpholin-4-yl-pyrimidin-4-ylamino)-piperidin-1-yl]-ethyl}-phosphonic Acid Diethyl Ester] | 9% | 9 ± 2% | protective efficacy against paclitaxel-induced neurotoxicity (in words) ([1]; DRG neurons): exhibited protective efficacy
CCOP(=O)(CCN1CCC(Nc2cc(N3CCOCC3)nc(NCc3ccc(CCO)cc3)n2)CC1)OCC [CN018, Diethyl(2-(4-((2-((4-(2-hydroxyethyl)benzyl)amino)-6-morpholinopyrimidin-4-yl)amino)piperidin-1-yl)ethyl)phosphonate] | 3% | 3 ± 2.2% | protective efficacy against paclitaxel-induced neurotoxicity (in words) ([1]; DRG neurons): inactive
CCOP(=O)(CCN1CCC(Nc2cc(N3CCOCC3)nc(NCc3cn(CCCOCCC(=O)OC)nn3)n2)CC1)OCC [CN015, 3-(3-{4-[(4-{1-[2-(Diethoxy-phosphoryl)-ethyl]-piperidin-4-ylamino}-6-morpholin-4-yl-pyrimidin-2-ylamino)-methyl]-[1,2,3]triazol-1-yl}-propoxy)-propionic Acid Methyl Ester] | 3% | 3 ± 1.11% | 
NCCOCCn1cc(CNc2nc(NC3CCN(C(=O)CCNC(=O)C4(O)CC(O)C(O)C(O)C4)CC3)cc(N3CCOCC3)n2)nn1 (stereo not drawn) [CN008, 1,3,4,5-Tetrahydroxy-cyclohexanecarboxylic Acid (3-{4-[2-({1-[2-(2-Amino-ethoxy)-ethyl]-1H-[1,2,3]triazol-4-ylmethyl}-amino)-6-morpholin-4-yl-pyrimidin-4-ylamino]-piperidin-1-yl}-3-oxo-propyl)-amide Hydrochloride Salt] | 4% | 4 ± 1.44% | 
O=C(O)Cn1cc(CNc2nc(NC3CCN(Cc4ccccc4)CC3)cc(N3CCOCC3)n2)nn1 [CN001, (4-{[4-(1-Benzyl-piperidin-4-ylamino)-6-morpholin-4-yl-pyrimidin-2-ylamino]-methyl}-[1,2,3]triazol-1-yl)-acetic Acid Hydrochloride Salt] | -6% | -6 ± 0.3% | 
COC(=O)CCN1CCC(Nc2cc(N3CCOCC3)nc(NCCCCCCO)n2)CC1 [CN017, Methyl 3-(4-((2-((6-Hydroxyhexyl)amino)-6-morpholinopyrimidin-4-yl)amino)piperidin-1-yl)propanoate] | 1% | 1 ± 0.51% | protective efficacy against paclitaxel-induced neurotoxicity (in words) ([1]; DRG neurons): inactive
O=P(O)(O)CCN1CCC(Nc2cc(N3CCOCC3)nc(NCc3cn(CCO)nn3)n2)CC1 [CN020, (2-(4-((2-(((1-(2-Hydroxyethyl)-1H-1,2,3-triazol-4-yl)methyl)amino)-6-morpholinopyrimidin-4-yl)amino)piperidin-1-yl)ethyl)phosphonic Acid Hydrobromide Salt] | 8% |  | activation at 1 µM [1, 5]: 8 to 11%
COC(=O)CCN1CCC(Nc2cc(N3CCOCC3)nc(NCc3cn(CCCO)nn3)n2)CC1 [CN009, 3-[4-(2-{[1-(3-Hydroxy-propyl)-1H-[1,2,3]triazol-4-ylmethyl]-amino}-6-morpholin-4-yl-pyrimidin-4-ylamino)-piperidin-1-yl]-propionic Acid Methyl Ester] | 15% | 15 ± 1.28% | protective efficacy against paclitaxel-induced neurotoxicity (in words) ([1]; DRG neurons): exhibited protective efficacy
Nc1cc(N2CCCCC2)nc(N)[n+]1[O-] [Minoxidil, reference compound] |  |  | protective effect on paclitaxel-induced neuropathy in behavior tests [2]: no protective effect; activity at 1 µM (primary cortical neurons [3]): 66 ± 3%; dose causing hypotension (mice): 50 mg/kg; dose causing tachycardia (mice): 25 mg/kg; activation at 1 µM [1, 5]: 15 ± 1.41%; activity at 1 µM (primary cortical neurons [4]): 58 ± 8%
COCCCn1cc(CNc2nc(NC3CCN(CCC(=O)OC)CC3)cc(N3CCOCC3)n2)nn1 [CN010, 3-[4-(2-{[1-(3-Methoxy-propyl)-1H-[1,2,3]triazol-4-ylmethyl]-amino}-6-morpholin-4-yl-pyrimidin-4-ylamino)-piperidin-1-yl]-propionic Acid Methyl Ester] | 5% | 5 ± 3.06% | 
